Source: ChEMBL document CHEMBL1201862, “PubChem BioAssay data set” (2004)
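Grown in 96-well plates, cells were treated for 48 hours with each compound at five concentrations. Insufficient inhibition: endpoint recorded as highest concentration tested. At the GI50, growth is halved.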 Active and inactive are the calls of the source. Rule as the data show it: active = GI50 up to about 1.1 µM and inactive = higher.

How the values were obtained:
Assay in all cases: DTP human tumour cell line panel, 48 h
786-0 = tested on: 786-0
A498 = tested on: A498
A549 = tested on: A549
ACHN = tested on: ACHN
CAKI-1 = tested on: CAKI-1
CCRF-CEM = tested on: CCRF-CEM
COLO 205 = tested on: COLO 205
DLD-1 = tested on: DLD-1
DMS-114 = tested on: DMS-114
DMS-273 = tested on: DMS-273
EKVX = tested on: EKVX
HCC 2998 = tested on: HCC 2998
HCT-15 = tested on: HCT-15
HL-60 = tested on: HL-60
HOP-62 = tested on: HOP-62
HT-29 = tested on: HT-29
K562 = tested on: K562
KM-20L2 = tested on: KM-20L2
KM12 = tested on: KM12
LOX IMVI = tested on: LOX IMVI
LXFL 529 = tested on: LXFL 529
M14 = tested on: M14
M19-MEL = tested on: M19-MEL
MOLT-4 = tested on: MOLT-4
NCI-H226 = tested on: NCI-H226
NCI-H23 = tested on: NCI-H23
NCI-H460 = tested on: NCI-H460
NCI-H522 = tested on: NCI-H522
OVCAR-3 = tested on: OVCAR-3
OVCAR-4 = tested on: OVCAR-4
OVCAR-5 = tested on: OVCAR-5
OVCAR-8 = tested on: OVCAR-8
RPMI-8226 = tested on: RPMI-8226
RXF 393 = tested on: RXF 393
SF-268 = tested on: SF-268
SF-295 = tested on: SF-295
SF-539 = tested on: SF-539
SK-MEL-28 = tested on: SK-MEL-28
SK-MEL-2 = tested on: SK-MEL-2
SK-MEL-5 = tested on: SK-MEL-5
SK-OV-3 = tested on: SK-OV-3
SN12C = tested on: SN12C
SNB-19 = tested on: SNB-19
SNB-75 = tested on: SNB-75
SR = tested on: SR
TK-10 = tested on: TK-10
U-251 = tested on: U-251
UACC-257 = tested on: UACC-257
UACC-62 = tested on: UACC-62
UO-31 = tested on: UO-31
BT-549 = tested on: BT-549
DU-145 = tested on: DU-145
HCT-116 = tested on: HCT-116
HOP-92 = tested on: HOP-92
Hs-578T = tested on: Hs-578T
IGROV-1 = tested on: IGROV-1
MCF7 = tested on: MCF7
MDA-MB-231 = tested on: MDA-MB-231
MDA-MB-435 = tested on: MDA-MB-435
MDA-N = tested on: MDA-N
Malme-3M = tested on: Malme-3M
NCI/ADR-RES = tested on: NCI/ADR-RES
PC-3 = tested on: PC-3
SW-620 = tested on: SW-620
T47D = tested on: T47D

Measured: GI50

Cc1cc(NCCCCCCCCNc2cc(C)nc3cc(N)ccc23)c2ccc(N)cc2n1
41.5 µM: HCT-15
active: HL-60 0.566 µM
inactive: 786-0 18.9 µM | A498 39.6 µM | A549 18.3 µM | ACHN 37.7 µM | CAKI-1 46.8 µM | CCRF-CEM 3.13 µM | COLO 205 6.4 µM | DLD-1 16.9 µM | DMS-114 3.35 µM | DMS-273 4.56 µM | EKVX 22.2 µM | HCC 2998 15.1 µM | HOP-62 26.9 µM | HT-29 21.8 µM | K562 1.95 µM | KM-20L2 19 µM | KM12 12.5 µM | LOX IMVI 17.1 µM | LXFL 529 11.3 µM | M14 16.7 µM | M19-MEL 15.5 µM | MOLT-4 > 100 µM | NCI-H226 24.4 µM | NCI-H23 14.3 µM | NCI-H460 15.7 µM | NCI-H522 3.78 µM | OVCAR-3 14.9 µM | OVCAR-4 17.3 µM | OVCAR-5 22.5 µM | OVCAR-8 17.2 µM | RPMI-8226 6.68 µM | RXF 393 27.7 µM | SF-268 26.2 µM | SF-295 18.2 µM | SF-539 17 µM | SK-MEL-28 19.9 µM | SK-MEL-2 13.6 µM | SK-MEL-5 10.9 µM | SK-OV-3 38.5 µM | SN12C 15.8 µM | SNB-19 14.1 µM | SNB-75 16.4 µM | SR 10.9 µM | TK-10 44.9 µM | U-251 8.57 µM | UACC-257 12.7 µM | UACC-62 17 µM | UO-31 > 100 µM

C/C(=N/NC(=S)N1CCCCCC1)c1ccccc1O
1.26 µM: HCT-15
inactive: 786-0 1.89 µM | A498 23.8 µM | A549 6.05 µM | ACHN 2.65 µM | BT-549 8.97 µM | CAKI-1 8.05 µM | COLO 205 7.98 µM | DU-145 4.72 µM | EKVX 14.9 µM | HCC 2998 7.4 µM | HCT-116 3.11 µM | HL-60 2.25 µM | HOP-62 1.99 µM | HOP-92 50.2 µM | HT-29 7.73 µM | Hs-578T > 100 µM | IGROV-1 3.72 µM | K562 3.31 µM | KM12 3.67 µM | LOX IMVI 2.07 µM | M14 1.49 µM | MCF7 3.31 µM | MDA-MB-231 29.9 µM | MDA-MB-435 5.82 µM | MDA-N 13.6 µM | MOLT-4 2.26 µM | Malme-3M 2.59 µM | NCI-H226 > 22 µM | NCI-H23 14 µM | NCI-H522 1.49 µM | NCI/ADR-RES 1.69 µM | OVCAR-3 1.38 µM | OVCAR-4 6.98 µM | OVCAR-5 12.7 µM | OVCAR-8 2.81 µM | PC-3 6.7 µM | RPMI-8226 2.48 µM | RXF 393 51.5 µM | SF-268 3.03 µM | SF-295 4.8 µM | SF-539 3.86 µM | SK-MEL-28 8.36 µM | SK-MEL-2 3.29 µM | SK-MEL-5 4.05 µM | SK-OV-3 12.7 µM | SN12C 4.63 µM | SNB-19 42.2 µM | SNB-75 16.4 µM | SW-620 4.97 µM | T47D 7.6 µM | TK-10 3.58 µM | U-251 1.87 µM | UACC-257 4.6 µM | UACC-62 3.05 µM | UO-31 2.62 µM
active: CCRF-CEM 0.792 µM | NCI-H460 0.65 µM | SR 0.492 µM

COc1cc(OC)cc(Oc2nc3ccccc3nc2C(F)(F)F)c1
51.4 µM: HCT-15
active: CCRF-CEM 0.986 µM
inactive: 786-0 > 100 µM | A498 22.9 µM | A549 > 100 µM | ACHN > 100 µM | BT-549 > 100 µM | CAKI-1 > 100 µM | COLO 205 > 100 µM | DU-145 > 100 µM | EKVX > 100 µM | HCC 2998 > 100 µM | HCT-116 > 100 µM | HL-60 22.3 µM | HOP-62 19.3 µM | HOP-92 42 µM | HT-29 > 100 µM | Hs-578T 72.1 µM | IGROV-1 5.89 µM | K562 9.25 µM | KM12 > 100 µM | LOX IMVI > 100 µM | M14 53.8 µM | MCF7 > 100 µM | MDA-MB-231 14.7 µM | MDA-MB-435 3.41 µM | MDA-N 3.66 µM | MOLT-4 > 100 µM | Malme-3M > 100 µM | NCI-H226 > 100 µM | NCI-H23 > 100 µM | NCI-H460 > 100 µM | NCI-H522 > 100 µM | NCI/ADR-RES > 100 µM | OVCAR-3 > 100 µM | OVCAR-4 > 100 µM | OVCAR-5 45.1 µM | OVCAR-8 > 100 µM | PC-3 89.7 µM | RPMI-8226 > 100 µM | RXF 393 19.5 µM | SF-268 68.4 µM | SF-295 28.8 µM | SF-539 52.5 µM | SK-MEL-28 > 100 µM | SK-MEL-2 48.6 µM | SK-MEL-5 76.7 µM | SK-OV-3 > 100 µM | SN12C > 100 µM | SNB-19 53.7 µM | SNB-75 21.9 µM | SR 6.1 µM | SW-620 20.4 µM | T47D > 100 µM | TK-10 > 100 µM | U-251 27.2 µM | UACC-257 > 100 µM | UACC-62 > 100 µM | UO-31 > 100 µM

C=C1CC2(CC(c3ccccc3C)OC(c3ccccc3C)C2)OC1=O (configuration not stated)
1.95 µM: HCT-15
inactive: 786-0 1.96 µM | A498 8.99 µM | A549 8.47 µM | ACHN 2.36 µM | BT-549 1.92 µM | CAKI-1 1.87 µM | CCRF-CEM 2.04 µM | COLO 205 1.9 µM | DU-145 12.1 µM | EKVX 16.1 µM | HCC 2998 2.25 µM | HCT-116 1.82 µM | HL-60 1.6 µM | HOP-62 10.7 µM | HOP-92 1.76 µM | HT-29 1.82 µM | Hs-578T 2.24 µM | IGROV-1 1.69 µM | K562 2.15 µM | KM12 2.18 µM | LOX IMVI 1.58 µM | M14 1.59 µM | MCF7 1.85 µM | MDA-MB-231 1.6 µM | MDA-MB-435 1.71 µM | MDA-N 1.75 µM | MOLT-4 2.77 µM | Malme-3M 1.71 µM | NCI-H226 7.78 µM | NCI-H23 1.96 µM | NCI-H460 2.96 µM | NCI-H522 1.73 µM | NCI/ADR-RES 3.48 µM | OVCAR-3 1.78 µM | OVCAR-4 2.27 µM | OVCAR-5 13.2 µM | OVCAR-8 2.19 µM | PC-3 2.21 µM | RXF 393 2.29 µM | SF-268 1.83 µM | SF-295 15.8 µM | SF-539 1.62 µM | SK-MEL-28 1.82 µM | SK-MEL-2 2 µM | SK-MEL-5 1.86 µM | SK-OV-3 11.6 µM | SN12C 1.97 µM | SNB-19 16.3 µM | SNB-75 3.23 µM | SR 2.15 µM | SW-620 1.73 µM | T47D 1.72 µM | TK-10 1.74 µM | U-251 12.9 µM | UACC-257 1.78 µM | UACC-62 1.54 µM | UO-31 4.08 µM
active: RPMI-8226 0.473 µM
